Common to all, as to format: cell-based, human
In one experiment the test system is PSN-1. The experiment in a line: SRB colorimetric cytotoxicity assay, PSN-1. The note with it: 72 hours treatment, pancreatic adenocarcinoma. An excerpt: (§1) The aim of this assay is to evaluate the in vitro cytostatic (ability to delay or arrest tumor cell growth) or cytotoxic (ability to kill tumor cells) activity of the samples being tested.
(§2) A colorimetric assay, using sulforhodamine B (SRB) reaction has been adapted to provide a quantitative measurement of cell growth and viability (following the technique described by V. Vichai and K. Kirtikara (2006) Nature Protoc. 1, 1112-1116.)
(§3) This form of assay employs 96-well cell culture microplates. All the cell lines used in this study were obtained from the American Type Culture Collection (ATCC), unless otherwise indicated, and derive from different types of human cancer.
(§4) Cells were maintained in Dulbecco's Modified Eagle Medium (DMEM) (for A549, HT-29 and MDA-MB-231) or RPMI (for PSN-1) supplemented with 10% Fetal Bovine Serum (FBS), 2 mM L-glutamine, 100 U/mL penicillin and 100 U/mL streptomycin at 37° C., 5% CO2 and 98% humidity. For the experiments, cells were harvested from subconfluent cultures using trypsinization and resuspended in fresh medium before counting and plating.
(§5) Cells were seeded in 96 well microtiter plates, at 5×10^3 cells per well in aliquots of 150 μL, and allowed to attach to the plate surface for 18 hours (overnight) in drug free medium. After that, one control (untreated) plate of each cell line was fixed (as described below) and used for time zero reference value. […] After 72 hours treatment, the antitumor effect was measured by using the SRB methodology: Briefly, cells were washed twice with PBS, fixed for 15 min in 1% glutaraldehyde solution at room temperature, rinsed twice in PBS, and stained in 0.4% SRB solution for 30 min at room temperature. Cells were then rinsed several times with 1% acetic acid solution and air-dried at room temperature. SRB was then extracted in 10 mM trizma base solution and the absorbance measured in an automated spectrophotometric plate reader at 490 nm. Effects on cell growth and survival were estimated by applying the NCI algorithm (Boyd M R and Pauli K D. Drug Dev Res. 1995, 34, 91-104).
(§6) Using the mean±SD of triplicates, a dose-response curve was automatically generated using nonlinear regression analysis to a 4-parameter logistic curve. Three reference parameters were calculated (NCI algorithm) by automatic interpolation: GI50=compound concentration that produces 50% cell growth inhibition, as compared to control cultures; TGI=total cell growth inhibition (cytostatic effect), as compared to control cultures, and LC50=compound concentration that produces 50% net cell killing (cytotoxic effect).

In another experiment the test system is A549. The experiment can be described thus: SRB colorimetric cytotoxicity assay, A549. The note with it: 72 hours treatment, lung carcinoma (NSCLC).
Source text: as §1, §2, §3, §4, §5, §6

The test system of another experiment is MDA-MB-231. The experiment can be described thus: SRB colorimetric cytotoxicity assay, MDA-MB-231. Particulars: 72 hours treatment, breast adenocarcinoma.
Source text: as §1, §2, §3, §4, §5, §6

The subject of another experiment is HT29. The experiment in a line: SRB colorimetric cytotoxicity assay, HT29. Particulars: 72 hours treatment, colorectal adenocarcinoma.
Source text: as §1, §2, §3, §4, §5, §6

Regarding `C=CCOc1cc([C@@H](CCC)NC(=O)[C@]2(C)CSC(/C(C)=N/OCCCN)=N2)oc(=O)c1` (stereo in doubt) [Compound 153], the GI50 in the experiment on PSN-1 (Homo sapiens, PSN1, 72 h) came out at 3.98 nM; in the experiment on A549 (Homo sapiens, A549, 72 h), 3.98 nM; with MDA-MB-231 (Homo sapiens, MDA-MB-231, 72 h), 4.32 nM; in the experiment on HT29 (Homo sapiens, HT-29, 72 h), 3.38 nM.

Turning to `C=CCOc1cc([C@@H](CCC)NC(=O)[C@]2(C)CSC(/C(C)=N/OCCCN)=N2)oc(=O)c1` (stereo in doubt) [Compound 154], the GI50 in the experiment with PSN-1 came to 7.78 nM; in the experiment with A549, 4.79 nM; in the experiment on MDA-MB-231, 6.79 nM; in the experiment on HT29, 5.59 nM.

As to `C#CCOc1cc([C@@H](CCC)NC(=O)[C@]2(C)CSC(/C(C)=N/OCCCN)=N2)oc(=O)c1` (stereo in doubt) [Compound 156], the GI50 in the experiment with PSN-1 (Homo sapiens, PSN1, 72 h) is 2.43 nM; in the experiment on A549 (Homo sapiens, A549, 72 h) it was 1.28 nM; with MDA-MB-231 (Homo sapiens, MDA-MB-231, 72 h) it was 2.6 nM; with HT29 (Homo sapiens, HT-29, 72 h), 2.43 nM.

Take `CCC[C@@H](NC(=O)[C@]1(C)CSC(/C(C)=N/OCCCN)=N1)c1cc(OCC2CC2)cc(=O)o1` (stereo in doubt) [Compound 158]: the GI50 came to 6.27 nM in the experiment on PSN-1 (Homo sapiens, PSN1, 72 h); 5.43 nM in the experiment on A549 (Homo sapiens, A549, 72 h); 12.1 nM in the experiment with MDA-MB-231 (Homo sapiens, MDA-MB-231, 72 h); 6.06 nM in the experiment with HT29 (Homo sapiens, HT-29, 72 h).

For the molecule `CCC[C@@H](NC(=O)[C@]1(C)CSC(/C(C)=N/O)=N1)c1cc(OC)cc(=O)o1` [Compound 1], the GI50 with PSN-1 (Homo sapiens, PSN1, 72 h) amounted to 28.8 nM; in the experiment with A549 (Homo sapiens, A549, 72 h), 11.5 nM; in the experiment on MDA-MB-231 (Homo sapiens, MDA-MB-231, 72 h), 34.1 nM; with HT29 (Homo sapiens, HT-29, 72 h) it was 14.4 nM.

Consider `CCC[C@@H](NC(=O)[C@]1(C)CSC(/C(C)=N\O)=N1)c1cc(OC)cc(=O)o1` [Compound 1a], for which the GI50 worked out at 341 nM in the experiment with PSN-1 (Homo sapiens, PSN1, 72 h); 144 nM in the experiment on A549 (Homo sapiens, A549, 72 h); 204 nM in the experiment with MDA-MB-231 (Homo sapiens, MDA-MB-231, 72 h); 152 nM in the experiment on HT29 (Homo sapiens, HT-29, 72 h).

Regarding `CCC[C@@H](NC(=O)[C@]1(C)CSC(/C(C)=N/OC)=N1)c1cc(OC)cc(=O)o1` [Compound 2], the GI50 in the experiment on PSN-1 (Homo sapiens, PSN1, 72 h) is 329 nM; with A549 (Homo sapiens, A549, 72 h), 253 nM; with MDA-MB-231 (Homo sapiens, MDA-MB-231, 72 h), 430 nM; in the experiment on HT29 (Homo sapiens, HT-29, 72 h), 212 nM.

For `CCC[C@@H](NC(=O)[C@]1(C)CSC(C(C)=O)=N1)c1cc(OC)cc(=O)o1` [Compound 42], the GI50 in the experiment with PSN-1 (Homo sapiens, PSN1, 72 h) amounted to 5190 nM; in the experiment with A549 (Homo sapiens, A549, 72 h) it was 24600 nM; with MDA-MB-231 (Homo sapiens, MDA-MB-231, 72 h), 4640 nM; with HT29 (Homo sapiens, HT-29, 72 h) it was 8730 nM.

As to `CCC[C@@H](NC(=O)[C@]1(C)CSC(C(C)(OCC)OCC)=N1)c1cc(OCC)cc(=O)o1` [Compound 46], the concentration for 50% growth inhibition (GI50) came out at 4620 nM with PSN-1 (Homo sapiens, PSN1, 72 h); 2420 nM in the experiment on A549 (Homo sapiens, A549, 72 h); 1520 nM in the experiment with MDA-MB-231 (Homo sapiens, MDA-MB-231, 72 h); 2180 nM in the experiment on HT29 (Homo sapiens, HT-29, 72 h).

Consider `CCCCCCCOc1cc([C@@H](CCC)NC(=O)[C@]2(C)CSC(C(C)(OCC)OCC)=N2)oc(=O)c1` [Compound 48], for which the GI50 is 2100 nM in the experiment with PSN-1 (Homo sapiens, PSN1, 72 h); 3430 nM in the experiment with A549 (Homo sapiens, A549, 72 h); 2290 nM in the experiment with MDA-MB-231 (Homo sapiens, MDA-MB-231, 72 h); 2290 nM with HT29 (Homo sapiens, HT-29, 72 h).

For the molecule `CCCCCCCCCCCCCCCCCOc1cc([C@@H](CCC)NC(=O)[C@]2(C)CSC(C(C)(OCC)OCC)=N2)oc(=O)c1` [Compound 49], the GI50 in the experiment on PSN-1 (Homo sapiens, PSN1, 72 h) turned out to be 1460 nM; in the experiment on A549 (Homo sapiens, A549, 72 h) it was 1340 nM; with MDA-MB-231 (Homo sapiens, MDA-MB-231, 72 h), 1500 nM; in the experiment with HT29 (Homo sapiens, HT-29, 72 h), 932 nM.

As for `C=CCOc1cc([C@@H](CCC)NC(=O)[C@]2(C)CSC(C(C)(OCC)OCC)=N2)oc(=O)c1` [Compound 50], the GI50 was determined as 814 nM in the experiment on PSN-1 (Homo sapiens, PSN1, 72 h); 643 nM in the experiment with A549 (Homo sapiens, A549, 72 h); 536 nM with MDA-MB-231 (Homo sapiens, MDA-MB-231, 72 h); 514 nM with HT29 (Homo sapiens, HT-29, 72 h).

On to `C#CCOc1cc([C@@H](CCC)NC(=O)[C@]2(C)CSC(C(C)(OCC)OCC)=N2)oc(=O)c1` [Compound 51], for which the 50% growth inhibitory concentration (GI50) in the experiment with PSN-1 (Homo sapiens, PSN1, 72 h) was found to be 366 nM; in the experiment with A549 (Homo sapiens, A549, 72 h), 344 nM; in the experiment on MDA-MB-231 (Homo sapiens, MDA-MB-231, 72 h) it was 323 nM; with HT29 (Homo sapiens, HT-29, 72 h) it was 215 nM.

In the case of `CCC[C@@H](NC(=O)[C@]1(C)CSC(C(C)(OCC)OCC)=N1)c1cc(OCC2CC2)cc(=O)o1` [Compound 52], the 50% growth inhibitory concentration (GI50) in the experiment with PSN-1 (Homo sapiens, PSN1, 72 h) came to 1770 nM; with A549 (Homo sapiens, A549, 72 h) it was 1270 nM; in the experiment with MDA-MB-231 (Homo sapiens, MDA-MB-231, 72 h) it was 1290 nM; in the experiment on HT29 (Homo sapiens, HT-29, 72 h), 1210 nM.

For the molecule `CCCCCCCOc1cc([C@@H](CCC)NC(=O)[C@]2(C)CSC(C(C)=O)=N2)oc(=O)c1` [Compound 61], the GI50 with PSN-1 (Homo sapiens, PSN1, 72 h) amounted to 1730 nM; in the experiment with A549 (Homo sapiens, A549, 72 h), 1840 nM; in the experiment on MDA-MB-231 (Homo sapiens, MDA-MB-231, 72 h), 1440 nM; with HT29 (Homo sapiens, HT-29, 72 h), 1400 nM.
